Experimental data as given in ChEMBL document CHEMBL1681651, “A broad spectrum anticancer nucleoside with selective toxicity against human colon cells in vitro” (2011).

Assays:
Assay type in all cases: functional
HOP-62 = assay: Growth inhibition of human HOP62 cells assessed as cell growth at 10 uM after 48 hrs by SRB assay; details: HOP-62, 48 h, read-out: Activity
SK-OV-3 [1] = assay: Growth inhibition of human SKOV3 cells assessed as cell growth at 10 uM after 48 hrs by SRB assay; details: SK-OV-3, 48 h, read-out: Activity
NCI/ADR-RES [2] = assay: Growth inhibition of human NCI/ADR-RES cells assessed as cell growth at 10 uM after 48 hrs by SRB assay; details: read-out: Activity
HT-29 = assay: Growth inhibition of human HT-29 cells assessed as cell growth at 10 uM after 48 hrs by SRB assay; details: HT-29, 48 h, read-out: Activity
NCI-H522 = assay: Growth inhibition of human NCI-H522 cells assessed as cell growth at 10 uM after 48 hrs by SRB assay; details: NCI-H522, 48 h, read-out: Activity
MDA-MB-435 [3] = assay: Growth inhibition of human MDA-MB-435 cells assessed as cell growth at 10 uM after 48 hrs by SRB assay; details: MDA-MB-435, 48 h, read-out: Activity
SNB-19 [4] = assay: Growth inhibition of human SNB19 cells assessed as cell growth at 10 uM after 48 hrs by SRB assay; details: SNB-19, 48 h, read-out: Activity
SF-268 = assay: Growth inhibition of human SF268 cells assessed as cell growth at 100 uM after 48 hrs by SRB assay; details: SF-268, 48 h, read-out: Activity
ACHN [5] = assay: Growth inhibition of human ACHN cells assessed as cell growth at 1 mM after 48 hrs by SRB assay; details: read-out: Activity
ACHN [6] = assay: Growth inhibition of human ACHN cells assessed as cell growth at 100 uM after 48 hrs by SRB assay; details: read-out: Activity
SF-295 = assay: Growth inhibition of human SF295 cells after 48 hrs by […] growth inhibition assay; details: SF-295, 48 h
Malme-3M = assay: Growth inhibition of human MALME-3M cells after 48 hrs by […] growth inhibition assay
SN12C = assay: Growth inhibition of human SN12C cells assessed as cell growth at 1 mM after 48 hrs by SRB assay; details: read-out: Activity
ACHN [7] = assay: Growth inhibition of human ACHN cells assessed as cell growth at 1 uM after 48 hrs by SRB assay; details: read-out: Activity
HCC 2998 [8] = assay: Growth inhibition of human HCC2998 cells assessed as cell growth at 1 mM after 48 hrs by SRB assay; details: HCC 2998, 48 h, read-out: Activity
HCC 2998 [9] = assay: Growth inhibition of human HCC2998 cells assessed as cell growth at 10 uM after 48 hrs by SRB assay; details: HCC 2998, 48 h, read-out: Activity
OVCAR-8 [10] = assay: Growth inhibition of human OVCAR8 cells assessed as cell growth at 0.1 uM after 48 hrs by SRB assay; details: OVCAR-8, 48 h, read-out: Activity
UO-31 [11] = assay: Growth inhibition of human UO31 cells assessed as cell growth at 1 mM after 48 hrs by SRB assay; details: UO-31, 48 h, read-out: Activity
HOP-92 = assay: Growth inhibition of human HOP92 cells assessed as cell growth at 0.1 uM after 48 hrs by SRB assay; details: HOP-92, 48 h, read-out: Activity
SK-MEL-5 [12] = assay: Growth inhibition of human SK-MEL-5 cells assessed as cell growth at 100 uM after 48 hrs by SRB assay; details: SK-MEL-5, 48 h, read-out: Activity
LOX IMVI = assay: Growth inhibition of human LOXIMVI cells assessed as cell growth at 1 mM after 48 hrs by SRB assay; details: read-out: Activity
MDA-MB-435 [13] = assay: Growth inhibition of human MDA-MB-435 cells assessed as cell growth at 1 uM after 48 hrs by SRB assay; details: MDA-MB-435, 48 h, read-out: Activity
OVCAR-8 [14] = assay: Growth inhibition of human OVCAR8 cells after 48 hrs by […] growth inhibition assay; details: OVCAR-8, 48 h
UO-31 [15] = assay: Growth inhibition of human UO31 cells assessed as cell growth at 0.1 uM after 48 hrs by SRB assay; details: UO-31, 48 h, read-out: Activity
[16] = Growth inhibition of human […] cells after 48 hrs by […] growth inhibition assay
U-251 = assay: Growth inhibition of human U251 cells assessed as cell growth at 1 uM after 48 hrs by SRB assay; details: U-251, 48 h, read-out: Activity
RXF 393 = assay: Growth inhibition of human RXF393 cells assessed as cell growth at 1 uM after 48 hrs by SRB assay; details: RXF 393, 48 h, read-out: Activity
NCI/ADR-RES [17] = assay: Growth inhibition of human NCI/ADR-RES cells after 48 hrs by SRB assay
SK-OV-3 [18] = assay: Growth inhibition of human SKOV3 cells assessed as cell growth at 1 uM after 48 hrs by SRB assay; details: SK-OV-3, 48 h, read-out: Activity
SK-MEL-5 [19] = assay: Growth inhibition of human SK-MEL-5 cells assessed as cell growth at 1 uM after 48 hrs by SRB assay; details: SK-MEL-5, 48 h, read-out: Activity
SNB-19 [20] = assay: Growth inhibition of human SNB19 cells assessed as cell growth at 0.1 uM after 48 hrs by SRB assay; details: SNB-19, 48 h, read-out: Activity
IGROV-1 = assay: Growth inhibition of human IGROV1 cells assessed as cell growth at 1 mM after 48 hrs by SRB assay; details: IGROV-1, 48 h, read-out: Activity
UACC-257 = assay: Growth inhibition of human UACC257 cells assessed as cell growth at 1 uM after 48 hrs by SRB assay; details: UACC-257, 48 h, read-out: Activity
KM12 = assay: Growth inhibition of human KM12 cells assessed as cell growth at 1 mM after 48 hrs by SRB assay; details: KM12, 48 h, read-out: Activity
MDA-MB-435 [21] = assay: Growth inhibition of human MDA-MB-435 cells after 48 hrs by SRB assay; details: MDA-MB-435, 48 h
[22] = read-out: LC50 (the source's name)
[23] = read-out: pLC50 (the source's name) (converted)

Work on `CNC(=O)OC[C@H]1O[C@@H](n2cnc3c(NC(=O)Nc4ccccc4)ncnc32)[C@H](O[Si](C)(C)C(C)(C)C)[C@@H]1O[Si](C)(C)C(C)(C)C` yielded a growth at 10 µM (HOP-62) of 104%, a growth at 10 µM (SK-OV-3 [1]) of 106% and a growth at 10 µM (NCI/ADR-RES [2]) of 97.6%. The growth at 10 µM (HT-29) was 81.3%, the growth at 10 µM (NCI-H522) was 52.6% and the growth at 10 µM (MDA-MB-435 [3]) was 94.9%. For the same molecule, the growth at 10 µM (SNB-19 [4]) was 114%.
`CCOC(=O)C[C@H]1[C@@H](O[Si](C)(C)C(C)(C)C)[C@H](n2cnc3c(NC(=O)Nc4ccccc4)ncnc32)O[C@@H]1CNC(=O)NC` gave a growth at 10 µM (HOP-62) of 97%, a growth at 100 µM (SF-268) of 40% and a growth at 1000 µM (ACHN [5]) of 35%. The growth at 100 µM (ACHN [6]) was 47%, the GI50 (SF-295; read-out: GI50) was 5.73 µM and the LC50 (SF-295; read-out: LC50) was over 100 µM. For the same molecule, the TGI (SF-295; read-out: TGI) was over 100 µM, the GI50 (SF-295; read-out: pGI50 (converted)) was 5.75 µM and the LC50 (SF-295; read-out: pLC50 (converted)) was over 100 µM. For the same molecule, the TGI (SF-295; read-out: pTGI (converted)) was over 100 µM, the growth at 10 µM (SK-OV-3 [1]) was 90% and the GI50 (Malme-3M; read-out: GI50) was 10.3 µM. The LC50 (concentration killing 50% of cells) (Malme-3M; read-out: LC50) was over 100 µM, the TGI (Malme-3M; read-out: TGI) was over 100 µM and the GI50 (Malme-3M; read-out: pGI50 (converted)) was 10.2 µM. It also gave an LC50 (concentration killing 50% of cells) (Malme-3M; read-out: pLC50 (converted)) of over 100 µM, a TGI (Malme-3M; read-out: pTGI (converted)) of over 100 µM and a growth at 1000 µM (SN12C) of 11%. The growth at 1 µM (ACHN [7]) was 97%, the growth at 1000 µM (HCC 2998 [8]) was 62% and the growth at 10 µM (HCC 2998 [9]) was 93%. The growth at 0.1 µM (OVCAR-8 [10]) was 99%, the growth at 1000 µM (UO-31 [11]) was -69% and the growth at 0.1 µM (HOP-92) was 4%. For the same molecule, the growth at 100 µM (SK-MEL-5 [12]) was 28%, the growth at 1000 µM (LOX IMVI) was 4% and the growth at 10 µM (NCI/ADR-RES [2]) was 104%. For the same molecule, the growth at 10 µM (HT-29) was 104%, the growth at 1 µM (MDA-MB-435 [13]) was 92% and the GI50 (OVCAR-8 [14]; read-out: GI50) was 4.92 µM. For the same molecule, the CC50 (OVCAR-8 [14]; [22]) was over 100 µM, the TGI (OVCAR-8 [14]; read-out: TGI) was 77.2 µM and the GI50 (OVCAR-8 [14]; read-out: pGI50 (converted)) was 4.9 µM. The CC50 (OVCAR-8 [14]; [23]) was over 100 µM, the TGI (OVCAR-8 [14]; read-out: pTGI (converted)) was 77.6 µM and the growth at 10 µM (NCI-H522) was 83%. The growth at 0.1 µM (UO-31 [15]) was 87%, the GI50 ([16]; read-out: GI50) was 1.09 µM and the CC50 [16, 22] was 59 µM. For the same molecule, the TGI ([16]; read-out: TGI) was 4.57 µM, the GI50 ([16]; read-out: pGI50 (converted)) was 1.1 µM and the CC50 [16, 23] was 58.9 µM. For the same molecule, the TGI ([16]; read-out: pTGI (converted)) was 4.57 µM, the growth at 1 µM (U-251) was 95% and the growth at 1 µM (RXF 393) was 97%. For the same molecule, the growth at 10 µM (MDA-MB-435 [3]) was 89%, the GI50 (NCI/ADR-RES [17]; read-out: GI50) was over 100 µM and the CC50 (NCI/ADR-RES [17]; [22]) was over 100 µM. For the same molecule, the TGI (NCI/ADR-RES [17]; read-out: TGI) was over 100 µM, the GI50 (NCI/ADR-RES [17]; read-out: pGI50 (converted)) was over 100 µM and the CC50 (NCI/ADR-RES [17]; [23]) was over 100 µM. The TGI (NCI/ADR-RES [17]; read-out: pTGI (converted)) was over 100 µM, the growth at 1 µM (SK-OV-3 [18]) was 96% and the growth at 1 µM (SK-MEL-5 [19]) was 100%. The growth at 0.1 µM (SNB-19 [20]) was 92%, the growth at 1000 µM (IGROV-1) was -58% and the growth at 1 µM (UACC-257) was 102%. It also gave a growth at 10 µM (SNB-19 [4]) of 87%, a growth at 1000 µM (KM12) of -28% and a GI50 (MDA-MB-435 [21]; read-out: GI50) of 6.21 µM. It also gave an LC50 (MDA-MB-435 [21]; read-out: LC50) of over 100 µM, a TGI (MDA-MB-435 [21]; read-out: TGI) of over 100 µM and a GI50 (MDA-MB-435 [21]; read-out: pGI50 (converted)) of 6.17 µM. The LC50 (MDA-MB-435 [21]; read-out: pLC50 (converted)) was over 100 µM and the TGI (MDA-MB-435 [21]; read-out: pTGI (converted)) was over 100 µM.
